# Legend:
# Type in all cases: in vivo
# [1] = test system: pigweed (Amaranthus retroflexus); experiment: Test A postemergence, pigweed; settings: 0 to 100 scale; for Plant response rating, Pigweed: 0 no effect, 100 complete control
# Method in brief: (§1)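 Ratings reflect visual comparison with untreated controls roughly 10 d after greenhouse application, 0 meaning no effect and 100 complete control. Treatment was by directed soil spray at planting or by spray onto one- to two-leaf plants in loam/sand pots.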
# [2] = test system: sedge, umbrella (small-flower umbrella sedge, Cyperus difformis); experiment: Test B flooded paddy test, umbrella sedge; settings: Flood, 250 g ai/ha, applied to paddy water, 2-leaf stage, visual evaluation after 13 to 15 d
# Method in brief: (§2)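 Rating: 0 = no effect, 100 = complete control, visual, relative to untreated plants. Conditions: 2-leaf stage, 3 cm flood kept constant, compound put directly into water, 13–15 d greenhouse.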
# [3] = test system: ryegrass, Italian (Lolium multiflorum); experiment: Test A postemergence, Italian ryegrass; settings: 0 to 100 scale; for Plant response rating, Ryegrass, Italian: 0 no effect, 100 complete control
# Method in brief: as §1
# [4] = test system: blackgrass (Alopecurus myosuroides); experiment: Test A postemergence, blackgrass; settings: 0 to 100 scale; for Plant response rating, Blackgrass: 0 no effect, 100 complete control
# Method in brief: as §1
# corn (Zea mays) = experiment: Test A postemergence, corn; settings: 0 to 100 scale; for Plant response rating, Corn: 0 no effect, 100 complete control
# Method in brief: as §1
# [5] = test system: galium (catchweed bedstraw, Galium aparine); experiment: Test A postemergence, galium; settings: 0 to 100 scale; for Plant response rating, Galium: 0 no effect, 100 complete control
# Method in brief: as §1
# [6] = test system: foxtail, giant (Setaria faberii); experiment: Test A preemergence, giant foxtail; settings: 0 to 100 scale; for Foxtail, Giant plant response rating: 0 is no effect, 100 is complete control
# Method in brief: as §1
# rice (Oryza sativa) = experiment: Test B flooded paddy test, rice; settings: Flood, 250 g ai/ha, applied to paddy water, 2-leaf stage, visual evaluation after 13 to 15 d
# Method in brief: as §2
# [7] = test system: wheat (Triticum aestivum); experiment: Test A postemergence, wheat; settings: 0 to 100 scale; for Plant response rating, Wheat: 0 no effect, 100 complete control
# Method in brief: as §1
# [8] = test system: barnyardgrass (Echinochloa crus-galli); experiment: Test B flooded paddy test, barnyardgrass; settings: Flood, 250 g ai/ha, applied to paddy water, 2-leaf stage, visual evaluation after 13 to 15 d
# Method in brief: as §2
# kochia (Kochia scoparia) [9] = experiment: Test A preemergence, kochia; settings: 0 to 100 scale; for Kochia plant response rating: 0 is no effect, 100 is complete control
# Method in brief: as §1
# [10] = test system: ryegrass, Italian (Lolium multiflorum); experiment: Test A preemergence, Italian ryegrass; settings: 0 to 100 scale; for Ryegrass, Italian plant response rating: 0 is no effect, 100 is complete control
# Method in brief: as §1
# [11] = test system: pigweed (Amaranthus retroflexus); experiment: Test A preemergence, pigweed; settings: 0 to 100 scale; for Pigweed plant response rating: 0 is no effect, 100 is complete control
# Method in brief: as §1
# kochia (Kochia scoparia) [12] = experiment: Test A postemergence, kochia; settings: 0 to 100 scale; for Plant response rating, Kochia: 0 no effect, 100 complete control
# Method in brief: as §1
# [13] = test system: ducksalad (Heteranthera limosa); experiment: Test B flooded paddy test, ducksalad; settings: Flood, 250 g ai/ha, applied to paddy water, 2-leaf stage, visual evaluation after 13 to 15 d
# Method in brief: as §2
# [14] = test system: barnyardgrass (Echinochloa crus-galli); experiment: Test A postemergence, barnyardgrass; settings: 0 to 100 scale; for Plant response rating, Barnyardgrass: 0 no effect, 100 complete control
# Method in brief: as §1
# [15] = test system: barnyardgrass (Echinochloa crus-galli); experiment: Test A preemergence, barnyardgrass; settings: 0 to 100 scale; for Barnyardgrass plant response rating: 0 is no effect, 100 is complete control
# Method in brief: as §1
# [16] = test system: foxtail, giant (Setaria faberii); experiment: Test A postemergence, giant foxtail; settings: 0 to 100 scale; for Plant response rating, Foxtail, Giant: 0 no effect, 100 complete control
# Method in brief: as §1
# [17] = test system: ragweed (common ragweed, Ambrosia elatior); experiment: Test A preemergence, ragweed; settings: 0 to 100 scale; for Ragweed plant response rating: 0 is no effect, 100 is complete control
# Method in brief: as §1
# [18] = test system: ragweed (common ragweed, Ambrosia elatior); experiment: Test A postemergence, ragweed; settings: 0 to 100 scale; for Plant response rating, Ragweed: 0 no effect, 100 complete control
# Method in brief: as §1
compound,measurement,setting,value
Cc1ccc2c(C(C)Nc3ncc(C(F)(F)F)c(N)n3)coc2c1 (stereo not drawn) [Compound 85],"Plant response rating, Pigweed",[1]; 125 g ai/ha,90
same,"Plant response rating, Pigweed",[1]; 500 g ai/ha,10
same,"Plant response rating, Sedge, Umbrella (0 to 100 scale, 0 is no effect, 100 is complete control)",[2],85
same,"Plant response rating, Ryegrass, Italian",[3]; 125 g ai/ha,50
same,"Plant response rating, Ryegrass, Italian",[3]; 500 g ai/ha,60
same,"Plant response rating, Blackgrass",[4]; 125 g ai/ha,40
same,"Plant response rating, Blackgrass",[4]; 500 g ai/ha,50
same,"Plant response rating, Corn",corn (Zea mays); 125 g ai/ha,10
same,"Plant response rating, Corn",corn (Zea mays); 500 g ai/ha,40
same,"Plant response rating, Galium",[5]; 125 g ai/ha,80
same,"Plant response rating, Galium",[5]; 500 g ai/ha,90
same,"Foxtail, Giant plant response rating",[6]; 125 g ai/ha,70
same,"Foxtail, Giant plant response rating",[6]; 500 g ai/ha,100
same,"Plant response rating, Rice (0 to 100 scale, 0 is no effect, 100 is complete control)",rice (Oryza sativa),0
same,"Plant response rating, Wheat",[7]; 125 g ai/ha,30
same,"Plant response rating, Wheat",[7]; 500 g ai/ha,30
same,"Plant response rating, Barnyardgrass (0 to 100 scale, 0 is no effect, 100 is complete control)",[8],0
same,Kochia plant response rating,kochia (Kochia scoparia) [9]; 125 g ai/ha,30
same,Kochia plant response rating,kochia (Kochia scoparia) [9]; 500 g ai/ha,90
same,"Ryegrass, Italian plant response rating",[10]; 125 g ai/ha,40
same,"Ryegrass, Italian plant response rating",[10]; 500 g ai/ha,50
same,Pigweed plant response rating,[11]; 125 g ai/ha,100
same,Pigweed plant response rating,[11]; 500 g ai/ha,100
same,"Plant response rating, Kochia",kochia (Kochia scoparia) [12]; 125 g ai/ha,70
same,"Plant response rating, Kochia",kochia (Kochia scoparia) [12]; 500 g ai/ha,90
same,"Plant response rating, Ducksalad (0 to 100 scale, 0 is no effect, 100 is complete control)",[13],30
same,"Plant response rating, Barnyardgrass",[14]; 125 g ai/ha,50
same,"Plant response rating, Barnyardgrass",[14]; 500 g ai/ha,80
same,Barnyardgrass plant response rating,[15]; 125 g ai/ha,70
same,Barnyardgrass plant response rating,[15]; 500 g ai/ha,100
same,"Plant response rating, Foxtail, Giant",[16]; 125 g ai/ha,40
same,"Plant response rating, Foxtail, Giant",[16]; 500 g ai/ha,90
same,Ragweed plant response rating,[17]; 125 g ai/ha,90
same,Ragweed plant response rating,[17]; 500 g ai/ha,100
same,"Plant response rating, Ragweed",[18]; 125 g ai/ha,50
same,"Plant response rating, Ragweed",[18]; 500 g ai/ha,90
"C[C@@H](Nc1ncc(C(F)(F)F)c(N)n1)c1cc2ccccc2s1 [Compound 4, N2-[(1R)-1-benzo[b]thien-2-ylethyl]-5-(trifluoromethyl)-2,4-pyrimidinediamine]",pest or weed control at 125 g/ha,"[1]; Amaranthus retroflexus, post-emergence, 240 h, 125 g ai/ha, read-out: Plant response rating, Pigweed",100%
same,pest or weed control at 500 g/ha,"[1]; Amaranthus retroflexus, post-emergence, 240 h, 500 g ai/ha, read-out: Plant response rating, Pigweed",100%
same,pest or weed control at 250 g/ha,"[2]; Cyperus difformis, 360 h, read-out: Plant response rating, Sedge, Umbrella (0 to 100 scale, 0 is no effect, 100 is complete control)",100%
same,pest or weed control at 125 g/ha,"[3]; Lolium multiflorum, post-emergence, 240 h, 125 g ai/ha, read-out: Plant response rating, Ryegrass, Italian",0%
same,pest or weed control at 500 g/ha,"[3]; Lolium multiflorum, post-emergence, 240 h, 500 g ai/ha, read-out: Plant response rating, Ryegrass, Italian",20%
same,pest or weed control at 125 g/ha,"[4]; Alopecurus myosuroides, post-emergence, 240 h, 125 g ai/ha, read-out: Plant response rating, Blackgrass",0%
same,pest or weed control at 500 g/ha,"[4]; Alopecurus myosuroides, post-emergence, 240 h, 500 g ai/ha, read-out: Plant response rating, Blackgrass",60%
same,"Corn plant response rating (crop injury, 0 = no effect, 100 = complete kill) at 125 g/ha","corn (Zea mays); Zea mays, post-emergence, 240 h, 125 g ai/ha",0%
same,"Corn plant response rating (crop injury, 0 = no effect, 100 = complete kill) at 500 g/ha","corn (Zea mays); Zea mays, post-emergence, 240 h, 500 g ai/ha",30%
same,pest or weed control at 125 g/ha,"[5]; Galium, post-emergence, 240 h, 125 g ai/ha, read-out: Plant response rating, Galium",80%
same,pest or weed control at 500 g/ha,"[5]; Galium, post-emergence, 240 h, 500 g ai/ha, read-out: Plant response rating, Galium",80%
same,"Plant response rating, Foxtail, Giant",[6]; 125 g ai/ha,90
same,"Plant response rating, Foxtail, Giant",[6]; 500 g ai/ha,100
same,plant injury at 250 g/ha,"rice (Oryza sativa); Oryza sativa, 360 h, read-out: Plant response rating, Rice (0 to 100 scale, 0 is no effect, 100 is complete control)",0%
same,plant injury at 125 g/ha,"[7]; Triticum aestivum, post-emergence, 240 h, 125 g ai/ha, read-out: Plant response rating, Wheat",0%
same,plant injury at 500 g/ha,"[7]; Triticum aestivum, post-emergence, 240 h, 500 g ai/ha, read-out: Plant response rating, Wheat",0%
same,pest or weed control at 250 g/ha,"[8]; Echinochloa crus-galli, 360 h, read-out: Plant response rating, Barnyardgrass (0 to 100 scale, 0 is no effect, 100 is complete control)",95%
same,"Plant response rating, Kochia",kochia (Kochia scoparia) [9]; 125 g ai/ha,100
same,"Plant response rating, Kochia",kochia (Kochia scoparia) [9]; 500 g ai/ha,100
same,"Plant response rating, Ryegrass, Italian",[10]; 125 g ai/ha,80
same,"Plant response rating, Ryegrass, Italian",[10]; 500 g ai/ha,90
same,"Plant response rating, Pigweed",[11]; 125 g ai/ha,100
same,"Plant response rating, Pigweed",[11]; 500 g ai/ha,100
same,pest or weed control at 125 g/ha,"kochia (Kochia scoparia) [12]; Bassia scoparia, post-emergence, 240 h, 125 g ai/ha, read-out: Plant response rating, Kochia",90%
same,pest or weed control at 500 g/ha,"kochia (Kochia scoparia) [12]; Bassia scoparia, post-emergence, 240 h, 500 g ai/ha, read-out: Plant response rating, Kochia",100%
same,pest or weed control at 250 g/ha,"[13]; Heteranthera limosa, 360 h, read-out: Plant response rating, Ducksalad (0 to 100 scale, 0 is no effect, 100 is complete control)",45%
same,pest or weed control at 125 g/ha,"[14]; Echinochloa crus-galli, post-emergence, 240 h, 125 g ai/ha, read-out: Plant response rating, Barnyardgrass",20%
same,pest or weed control at 500 g/ha,"[14]; Echinochloa crus-galli, post-emergence, 240 h, 500 g ai/ha, read-out: Plant response rating, Barnyardgrass",60%
same,"Plant response rating, Barnyardgrass",[15]; 125 g ai/ha,90
same,"Plant response rating, Barnyardgrass",[15]; 500 g ai/ha,100
same,pest or weed control at 125 g/ha,"[16]; Setaria faberi, post-emergence, 240 h, 125 g ai/ha, read-out: Plant response rating, Foxtail, Giant",30%
same,pest or weed control at 500 g/ha,"[16]; Setaria faberi, post-emergence, 240 h, 500 g ai/ha, read-out: Plant response rating, Foxtail, Giant",70%
same,"Plant response rating, Ragweed",[17]; 125 g ai/ha,100
same,"Plant response rating, Ragweed",[17]; 500 g ai/ha,100
same,pest or weed control at 125 g/ha,"[18]; Ambrosia artemisiifolia, post-emergence, 240 h, 125 g ai/ha, read-out: Plant response rating, Ragweed",80%
same,pest or weed control at 500 g/ha,"[18]; Ambrosia artemisiifolia, post-emergence, 240 h, 500 g ai/ha, read-out: Plant response rating, Ragweed",100%

# Source: US20220119354A1, “DIAMINO-SUBSTITUTED PYRIDINES AND PYRIMIDINES AS HERBICIDES” (FMC Corporation, priority 2019, published 2022)
